This test has as its system A/Mississippi/3/2001 H275Y mutant (H1N1). It counts as cell-based, influenza A virus.

We go through 1 compound from patent US20190298669A1 (priority 2018, published 2019).

`CCOC(=O)C1=C[C@@H](OC(CC)CC)[C@H](NC(C)=O)[C@@H](N)C1` [oseltamivir] yielded a reduction of virus of 43%.
